Biological target: T1, BpHldC (Burkholderia pseudomallei, UniProt Q63XZ4)
T1 construct: gene BPSL0395
Assay: biochemical

T1 sequence (Q63XZ4 1-161 limits assumed): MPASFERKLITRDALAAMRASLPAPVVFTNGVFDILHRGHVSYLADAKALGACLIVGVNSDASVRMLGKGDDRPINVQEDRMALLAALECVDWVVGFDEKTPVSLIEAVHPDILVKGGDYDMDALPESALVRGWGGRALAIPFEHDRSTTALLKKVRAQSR

Row | SMILES | IC50 [µM]
1 | CCOC(=O)c1sc(NC(=O)CSc2nnc(Cc3ccccc3)o2)c(C#N)c1C [compound 7929959, ethyl 5-({[(5-benzyl-1,3,4-oxadiazol-2-yl)thio]acetyl}amino)-4-cyano-3-methyl-2-thiophenecarboxylate] | 10.9
2 | CCOC(=O)c1sc(NC(=O)CSc2nnc(-c3ccc(Cl)cc3)o2)c(C#N)c1C [compound 7933420, ethyl 5-[({[5–(4-chlorophenyl)-1,3,4-oxadiazol-2-yl]thio}acetyl)amino]-4-cyano-3-methyl-2-thiophene carboxylate] | 17.5
3 | CCOC(=O)c1sc(NC(=O)CSc2nnc(-c3ccccc3OCC)o2)c(C#N)c1C [compound 7991890, ethyl 4-cyano-5-[({[5–(2-ethoxyphenyl)-1,3,4-oxadiazol-2-yl]thio}acetyl)amino]-3-methyl-2-thiophenecarboxylate] | 47.1
